Molecular target: Cannabinoid receptor 1 (Homo sapiens, UniProt P21554); further: in other assays of this panel Not Active means under 50% inhibition at 10 µM
Format: cell membranes, Chem-1, Membrane
Conditions: chem-1

Cannabinoid receptor 1, sequence (P21554 whole entry): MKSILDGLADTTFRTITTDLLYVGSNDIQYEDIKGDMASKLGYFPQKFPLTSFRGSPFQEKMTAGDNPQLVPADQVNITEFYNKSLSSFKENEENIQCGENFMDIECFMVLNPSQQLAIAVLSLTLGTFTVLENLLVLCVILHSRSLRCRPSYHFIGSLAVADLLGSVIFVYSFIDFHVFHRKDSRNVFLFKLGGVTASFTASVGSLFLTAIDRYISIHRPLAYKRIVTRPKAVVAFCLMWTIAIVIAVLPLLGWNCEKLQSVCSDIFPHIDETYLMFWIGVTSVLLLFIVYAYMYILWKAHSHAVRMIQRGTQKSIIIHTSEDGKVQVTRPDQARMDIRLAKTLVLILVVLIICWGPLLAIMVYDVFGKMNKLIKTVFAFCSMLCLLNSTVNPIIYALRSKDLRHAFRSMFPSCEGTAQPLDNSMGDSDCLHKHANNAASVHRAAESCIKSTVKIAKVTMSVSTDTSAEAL

Row | Molecule | IC50 | Ki
1 | N=C(N)c1ccc(OCCCCCOc2ccc(C(=N)N)cc2)cc1 [PENTAMIDINE] | Not Active | 
2 | CCc1ccc(CCOc2ccc(CC3SC(=O)NC3=O)cc2)nc1 (configuration not stated) [PIOGLITAZONE] | Not Active | 
3 | CCCNC(C)C(=O)Nc1ccccc1C (configuration not stated) [PRILOCAINE] | Not Active | 
4 | CCN(CC)CCNC(=O)c1ccc(N)cc1 [PROCAINAMIDE] | Not Active | 
5 | CCN(CC)CCCC(C)Nc1c2ccc(Cl)cc2nc2ccc(OC)cc12 (configuration not stated) [QUINACRINE] | Not Active | 
6 | C[C@]12C=CC(=O)C=C1CC[C@H]1[C@@H]3C[C@@H](O)[C@](O)(C(=O)CO)[C@@]3(C)C[C@H](O)[C@@]12F [TRIAMCINOLONE] | Not Active | 
7 | CCN(C(C)=O)c1cccc(-c2ccnc3c(C#N)cnn23)c1 [ZALEPLON] | Not Active | 
8 | COBALTOUS CHLORIDE | Not Active | Not Active
9 | COLISTIN | Not Active | Not Active

Molecular target: Cytochrome P450 2D6 (Homo sapiens, UniProt P10635); further: in other assays of this panel Not Active means under 50% inhibition at 10 µM
Conditions: bti-tn-5b1-4

Cytochrome P450 2D6, sequence (P10635 whole entry): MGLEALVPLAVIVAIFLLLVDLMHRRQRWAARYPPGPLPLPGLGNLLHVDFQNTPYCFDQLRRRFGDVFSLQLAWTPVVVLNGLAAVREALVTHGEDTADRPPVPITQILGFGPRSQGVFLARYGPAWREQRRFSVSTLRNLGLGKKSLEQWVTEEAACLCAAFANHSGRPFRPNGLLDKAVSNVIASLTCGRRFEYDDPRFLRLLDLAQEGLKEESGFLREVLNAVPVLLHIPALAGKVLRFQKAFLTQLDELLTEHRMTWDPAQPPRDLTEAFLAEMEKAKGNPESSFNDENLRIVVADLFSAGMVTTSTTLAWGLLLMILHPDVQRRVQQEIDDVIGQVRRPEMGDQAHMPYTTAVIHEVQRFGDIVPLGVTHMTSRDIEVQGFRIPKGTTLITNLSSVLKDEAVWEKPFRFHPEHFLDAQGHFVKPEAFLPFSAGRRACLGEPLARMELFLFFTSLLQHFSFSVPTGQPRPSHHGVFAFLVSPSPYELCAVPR

Row | Molecule | IC50 | Ki
10 | N=C(N)c1ccc(OCCCCCOc2ccc(C(=N)N)cc2)cc1 [PENTAMIDINE] | Not Active | Not Active
11 | CCc1ccc(CCOc2ccc(CC3SC(=O)NC3=O)cc2)nc1 (configuration not stated) [PIOGLITAZONE] | Not Active | Not Active
12 | CCCNC(C)C(=O)Nc1ccccc1C (configuration not stated) [PRILOCAINE] | Not Active | Not Active
13 | CCN(CC)CCNC(=O)c1ccc(N)cc1 [PROCAINAMIDE] | Not Active | Not Active
14 | CCN(CC)CCCC(C)Nc1c2ccc(Cl)cc2nc2ccc(OC)cc12 (configuration not stated) [QUINACRINE] | Not Active | Not Active
15 | C[C@]12C=CC(=O)C=C1CC[C@H]1[C@@H]3C[C@@H](O)[C@](O)(C(=O)CO)[C@@]3(C)C[C@H](O)[C@@]12F [TRIAMCINOLONE] | Not Active | Not Active
16 | CCN(C(C)=O)c1cccc(-c2ccnc3c(C#N)cnn23)c1 [ZALEPLON] | Not Active | Not Active
17 | COBALTOUS CHLORIDE | Not Active | Not Active
18 | COLISTIN | Not Active | Not Active

Tested on: not listed separately
Test: DRUGMATRIX: beta-Lactamase enzyme inhibition (substrate: Nitrocefin)
Parameters: species or system Bacillus cereus
Conditions: Not Active = under 50% inhibition at 10 µM

Row | Molecule | IC50 | Ki
19 | N=C(N)c1ccc(OCCCCCOc2ccc(C(=N)N)cc2)cc1 [PENTAMIDINE] | Not Active | Not Active
20 | CCc1ccc(CCOc2ccc(CC3SC(=O)NC3=O)cc2)nc1 (configuration not stated) [PIOGLITAZONE] | Not Active | Not Active
21 | CCCNC(C)C(=O)Nc1ccccc1C (configuration not stated) [PRILOCAINE] | Not Active | Not Active
22 | CCN(CC)CCNC(=O)c1ccc(N)cc1 [PROCAINAMIDE] | Not Active | Not Active
23 | CCN(CC)CCCC(C)Nc1c2ccc(Cl)cc2nc2ccc(OC)cc12 (configuration not stated) [QUINACRINE] | Not Active | Not Active
24 | C[C@]12C=CC(=O)C=C1CC[C@H]1[C@@H]3C[C@@H](O)[C@](O)(C(=O)CO)[C@@]3(C)C[C@H](O)[C@@]12F [TRIAMCINOLONE] | Not Active | Not Active
25 | CCN(C(C)=O)c1cccc(-c2ccnc3c(C#N)cnn23)c1 [ZALEPLON] | Not Active | Not Active
26 | COBALTOUS CHLORIDE | Not Active | Not Active
27 | COLISTIN | Not Active | Not Active

Molecular target: T1, Endothelin-1 receptor (Homo sapiens, UniProt P25101); further: in other assays of this panel Not Active means under 50% inhibition at 10 µM
T1 sequence (P25101 whole entry): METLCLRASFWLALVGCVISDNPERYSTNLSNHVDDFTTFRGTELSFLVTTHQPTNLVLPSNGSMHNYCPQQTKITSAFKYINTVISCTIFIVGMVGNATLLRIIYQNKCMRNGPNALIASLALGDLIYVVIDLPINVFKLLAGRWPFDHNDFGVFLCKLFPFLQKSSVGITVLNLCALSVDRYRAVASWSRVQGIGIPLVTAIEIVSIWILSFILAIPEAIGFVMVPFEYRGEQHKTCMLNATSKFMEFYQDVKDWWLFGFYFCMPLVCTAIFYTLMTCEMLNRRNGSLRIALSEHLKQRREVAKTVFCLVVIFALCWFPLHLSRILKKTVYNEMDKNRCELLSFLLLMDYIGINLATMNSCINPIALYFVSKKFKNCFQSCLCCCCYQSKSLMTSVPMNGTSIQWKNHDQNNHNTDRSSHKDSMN
Format: cell membranes, Membrane
Conditions: cho-k1

Row | Molecule | IC50 | Ki
28 | N=C(N)c1ccc(OCCCCCOc2ccc(C(=N)N)cc2)cc1 [PENTAMIDINE] | Not Active | 
29 | CCc1ccc(CCOc2ccc(CC3SC(=O)NC3=O)cc2)nc1 (configuration not stated) [PIOGLITAZONE] | Not Active | 
30 | CCCNC(C)C(=O)Nc1ccccc1C (configuration not stated) [PRILOCAINE] | Not Active | 
31 | CCN(CC)CCNC(=O)c1ccc(N)cc1 [PROCAINAMIDE] | Not Active | 
32 | CCN(CC)CCCC(C)Nc1c2ccc(Cl)cc2nc2ccc(OC)cc12 (configuration not stated) [QUINACRINE] | Not Active | 
33 | C[C@]12C=CC(=O)C=C1CC[C@H]1[C@@H]3C[C@@H](O)[C@](O)(C(=O)CO)[C@@]3(C)C[C@H](O)[C@@]12F [TRIAMCINOLONE] | Not Active | 
34 | CCN(C(C)=O)c1cccc(-c2ccnc3c(C#N)cnn23)c1 [ZALEPLON] | Not Active | 
35 | COBALTOUS CHLORIDE | Not Active | Not Active
36 | COLISTIN | Not Active | Not Active

Molecular target: Melanocortin receptor 5 (Homo sapiens, UniProt P33032); further: in other assays of this panel Not Active means under 50% inhibition at 10 µM
Format: cell membranes, HEK293, Membrane
Conditions: hek293

Melanocortin receptor 5, sequence (P33032 whole entry): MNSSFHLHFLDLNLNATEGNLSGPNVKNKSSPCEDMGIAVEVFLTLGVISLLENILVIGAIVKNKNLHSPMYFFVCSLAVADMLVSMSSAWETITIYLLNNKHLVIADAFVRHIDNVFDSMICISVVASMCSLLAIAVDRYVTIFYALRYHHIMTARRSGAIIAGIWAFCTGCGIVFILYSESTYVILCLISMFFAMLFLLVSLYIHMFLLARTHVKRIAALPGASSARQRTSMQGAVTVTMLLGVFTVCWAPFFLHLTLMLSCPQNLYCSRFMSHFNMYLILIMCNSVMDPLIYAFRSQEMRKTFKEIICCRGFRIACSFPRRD

Row | Molecule | IC50 | Ki
37 | N=C(N)c1ccc(OCCCCCOc2ccc(C(=N)N)cc2)cc1 [PENTAMIDINE] | Not Active | 
38 | CCc1ccc(CCOc2ccc(CC3SC(=O)NC3=O)cc2)nc1 (configuration not stated) [PIOGLITAZONE] | Not Active | 
39 | CCCNC(C)C(=O)Nc1ccccc1C (configuration not stated) [PRILOCAINE] | Not Active | 
40 | CCN(CC)CCNC(=O)c1ccc(N)cc1 [PROCAINAMIDE] | Not Active | 
41 | CCN(CC)CCCC(C)Nc1c2ccc(Cl)cc2nc2ccc(OC)cc12 (configuration not stated) [QUINACRINE] | Not Active | 
42 | C[C@]12C=CC(=O)C=C1CC[C@H]1[C@@H]3C[C@@H](O)[C@](O)(C(=O)CO)[C@@]3(C)C[C@H](O)[C@@]12F [TRIAMCINOLONE] | Not Active | 
43 | CCN(C(C)=O)c1cccc(-c2ccnc3c(C#N)cnn23)c1 [ZALEPLON] | Not Active | 
44 | COBALTOUS CHLORIDE | Not Active | Not Active

Same assay, conditions: hek293; read-out: IC50

Row | Molecule | IC50 [µM]
45 | COLISTIN | 0.266

Same assay, conditions: hek293; read-out: Ki

Row | Molecule | Ki [µM]
46 | COLISTIN | 0.249

Molecular target: T2, 5-hydroxytryptamine receptor 1A (Rattus norvegicus, UniProt P19327); further: in other assays of this panel Not Active means under 50% inhibition at 10 µM
T2 sequence (P19327 whole entry): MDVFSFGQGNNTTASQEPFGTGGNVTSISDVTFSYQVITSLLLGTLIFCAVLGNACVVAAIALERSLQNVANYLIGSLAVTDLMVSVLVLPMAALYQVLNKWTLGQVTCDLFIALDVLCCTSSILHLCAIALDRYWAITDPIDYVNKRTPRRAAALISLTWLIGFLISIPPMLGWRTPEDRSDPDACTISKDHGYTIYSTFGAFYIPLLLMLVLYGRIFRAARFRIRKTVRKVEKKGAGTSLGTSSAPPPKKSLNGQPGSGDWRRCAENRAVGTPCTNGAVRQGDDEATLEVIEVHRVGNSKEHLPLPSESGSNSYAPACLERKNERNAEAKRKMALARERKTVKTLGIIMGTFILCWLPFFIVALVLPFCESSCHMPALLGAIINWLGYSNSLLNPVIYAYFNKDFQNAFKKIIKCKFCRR
Format: cell membranes, CHO-K1, Membrane
Conditions: cho-k1

Row | Molecule | IC50 | Ki
47 | N=C(N)c1ccc(OCCCCCOc2ccc(C(=N)N)cc2)cc1 [PENTAMIDINE] | Not Active | 
48 | CCc1ccc(CCOc2ccc(CC3SC(=O)NC3=O)cc2)nc1 (configuration not stated) [PIOGLITAZONE] | Not Active | 
49 | CCCNC(C)C(=O)Nc1ccccc1C (configuration not stated) [PRILOCAINE] | Not Active | 
50 | CCN(CC)CCNC(=O)c1ccc(N)cc1 [PROCAINAMIDE] | Not Active | 
51 | CCN(CC)CCCC(C)Nc1c2ccc(Cl)cc2nc2ccc(OC)cc12 (configuration not stated) [QUINACRINE] | Not Active | 
52 | C[C@]12C=CC(=O)C=C1CC[C@H]1[C@@H]3C[C@@H](O)[C@](O)(C(=O)CO)[C@@]3(C)C[C@H](O)[C@@]12F [TRIAMCINOLONE] | Not Active | 
53 | CCN(C(C)=O)c1cccc(-c2ccnc3c(C#N)cnn23)c1 [ZALEPLON] | Not Active | 
54 | COBALTOUS CHLORIDE | Not Active | Not Active
55 | COLISTIN | Not Active | Not Active

Molecular target: Mitogen-activated protein kinase 1 (Homo sapiens, UniProt P28482)
Test: DRUGMATRIX: Protein Serine/Threonine Kinase, ERK2 enzyme inhibition (substrate: Myelin Basic Protein)
Parameters: species or system Escherichia coli
Conditions: Not Active = under 50% inhibition at 10 µM

Mitogen-activated protein kinase 1, sequence (P28482 whole entry): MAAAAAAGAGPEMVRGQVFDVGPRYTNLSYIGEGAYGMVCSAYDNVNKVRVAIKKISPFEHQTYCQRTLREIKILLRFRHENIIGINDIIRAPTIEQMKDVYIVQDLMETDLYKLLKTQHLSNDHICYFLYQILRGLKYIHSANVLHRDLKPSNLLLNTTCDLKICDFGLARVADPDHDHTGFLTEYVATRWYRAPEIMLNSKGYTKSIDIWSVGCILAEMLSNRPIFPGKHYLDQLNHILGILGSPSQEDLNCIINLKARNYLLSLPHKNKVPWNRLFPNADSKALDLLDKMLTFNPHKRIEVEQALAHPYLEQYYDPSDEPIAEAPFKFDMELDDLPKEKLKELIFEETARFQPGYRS

Row | Molecule | IC50 | Ki
56 | N=C(N)c1ccc(OCCCCCOc2ccc(C(=N)N)cc2)cc1 [PENTAMIDINE] | Not Active | 
57 | CCc1ccc(CCOc2ccc(CC3SC(=O)NC3=O)cc2)nc1 (configuration not stated) [PIOGLITAZONE] | Not Active | 
58 | CCCNC(C)C(=O)Nc1ccccc1C (configuration not stated) [PRILOCAINE] | Not Active | 
59 | CCN(CC)CCNC(=O)c1ccc(N)cc1 [PROCAINAMIDE] | Not Active | 
60 | CCN(CC)CCCC(C)Nc1c2ccc(Cl)cc2nc2ccc(OC)cc12 (configuration not stated) [QUINACRINE] | Not Active | 
61 | C[C@]12C=CC(=O)C=C1CC[C@H]1[C@@H]3C[C@@H](O)[C@](O)(C(=O)CO)[C@@]3(C)C[C@H](O)[C@@]12F [TRIAMCINOLONE] | Not Active | 
62 | CCN(C(C)=O)c1cccc(-c2ccnc3c(C#N)cnn23)c1 [ZALEPLON] | Not Active | 
63 | COBALTOUS CHLORIDE | Not Active | Not Active
64 | COLISTIN | Not Active | Not Active

Molecular target: 5-hydroxytryptamine receptor 4 (Cavia porcellus, UniProt O70528); further: in other assays of this panel Not Active means under 50% inhibition at 10 µM
Format: cell membranes, Dunkin-Hartley, Striatum, Membrane
Conditions: not given

5-hydroxytryptamine receptor 4, sequence (O70528 whole entry): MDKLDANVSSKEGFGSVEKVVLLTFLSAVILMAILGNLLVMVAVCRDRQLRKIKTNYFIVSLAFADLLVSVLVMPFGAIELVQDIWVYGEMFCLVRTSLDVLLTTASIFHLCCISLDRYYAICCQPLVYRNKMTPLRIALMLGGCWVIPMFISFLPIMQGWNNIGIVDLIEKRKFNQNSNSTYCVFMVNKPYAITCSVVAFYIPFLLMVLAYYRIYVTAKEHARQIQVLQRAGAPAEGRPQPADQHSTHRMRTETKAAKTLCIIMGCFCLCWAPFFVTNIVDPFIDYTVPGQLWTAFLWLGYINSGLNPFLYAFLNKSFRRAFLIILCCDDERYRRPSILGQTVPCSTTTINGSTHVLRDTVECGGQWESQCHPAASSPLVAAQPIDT

Row | Molecule | IC50 | Ki
65 | N=C(N)c1ccc(OCCCCCOc2ccc(C(=N)N)cc2)cc1 [PENTAMIDINE] | Not Active | 
66 | CCc1ccc(CCOc2ccc(CC3SC(=O)NC3=O)cc2)nc1 (configuration not stated) [PIOGLITAZONE] | Not Active | 
67 | CCCNC(C)C(=O)Nc1ccccc1C (configuration not stated) [PRILOCAINE] | Not Active | 
68 | CCN(CC)CCNC(=O)c1ccc(N)cc1 [PROCAINAMIDE] | Not Active | 
69 | CCN(CC)CCCC(C)Nc1c2ccc(Cl)cc2nc2ccc(OC)cc12 (configuration not stated) [QUINACRINE] | Not Active | 
70 | C[C@]12C=CC(=O)C=C1CC[C@H]1[C@@H]3C[C@@H](O)[C@](O)(C(=O)CO)[C@@]3(C)C[C@H](O)[C@@]12F [TRIAMCINOLONE] | Not Active | 
71 | CCN(C(C)=O)c1cccc(-c2ccnc3c(C#N)cnn23)c1 [ZALEPLON] | Not Active | 
72 | COBALTOUS CHLORIDE | Not Active | Not Active
73 | COLISTIN | Not Active | Not Active

— ChEMBL document CHEMBL1909046, “DrugMatrix in vitro pharmacology data”
